Patent publication US6737383B1, “Herbicidal oxadiazolidines” (priority 1999, dated 2004)

How the values were obtained:
[1] = system: blackgrass; experiment: Test B pre/postemergence blackgrass; type: in vivo, Alopecurus myosuroides
Method in brief: (§1)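 Herbicidal effect was estimated by eye on a ten-point control scale after plants spent twelve to sixteen days in a greenhouse following soil or foliar treatment. Foliar sprays targeted plants at one to four leaves; all doses were formulated in a non-phytotoxic solvent with surfactant.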

[2] = system: surinam grass; experiment: Test B pre/postemergence surinam grass; type: in vivo, Brachiaria decumbens
Method in brief: as §1

[3] = system: cocklebur; experiment: Test B pre/postemergence cocklebur; type: in vivo, Xanthium strumarium
Method in brief: as §1

[4] = system: corn; experiment: Test B pre/postemergence corn; type: in vivo, Zea mays
Method in brief: as §1

[5] = system: crabgrass; experiment: Test B pre/postemergence crabgrass; type: in vivo, Digitaria sanguinalis
Method in brief: as §1

[6] = system: giant foxtail; experiment: Test B pre/postemergence giant foxtail; type: in vivo, Setaria faberii
Method in brief: as §1

[7] = system: morningglory; experiment: Test B pre/postemergence morningglory; type: in vivo, Ipomoea hederacea
Method in brief: as §1

[8] = system: pigweed; experiment: Test B pre/postemergence pigweed; type: in vivo, Amaranthus retroflexus
Method in brief: as §1

[9] = system: rape; experiment: Test B pre/postemergence rape; type: in vivo, Brassica napus
Method in brief: as §1

[10] = system: soybean; experiment: Test B pre/postemergence soybean; type: in vivo, Glycine max
Method in brief: as §1

[11] = system: sugar beet; experiment: Test B pre/postemergence sugar beet; type: in vivo, Beta vulgaris
Method in brief: as §1

[12] = system: velvetleaf; experiment: Test B pre/postemergence velvetleaf; type: in vivo, Abutilon theophrasti
Method in brief: as §1

[13] = system: wheat; experiment: Test B pre/postemergence wheat; type: in vivo, Triticum aestivum
Method in brief: as §1

[14] = system: wild oat; experiment: Test B pre/postemergence wild oat; type: in vivo, Avena fatua
Method in brief: as §1

[15] = system: purple nutsedge; experiment: Test B pre/postemergence purple nutsedge; type: in vivo, Cyperus rotundus
Method in brief: as §1

[16] = system: rice; experiment: Test B flood test rice; type: in vivo, Oryza sativa
Method in brief: (§2)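 Plants were grown to the 2-leaf stage before treatment with test chemical, then held in a greenhouse for twelve to sixteen days. Injury was visually rated against untreated controls on a 0–10 scale, where 0 is no effect and 10 is complete control.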

[17] = system: smallflower flatsedge; experiment: Test B flood test smallflower flatsedge; type: in vivo, Cyperus difformis
Method in brief: as §2

[18] = system: duck salad; experiment: Test B flood test duck salad; type: in vivo, Heteranthera limosa
Method in brief: as §2

[19] = system: bamyardgrass; experiment: Test B flood test barnyardgrass; type: in vivo, Echinochloa crus-galli
Method in brief: as §2

[20] = Postemergence, Rate 250 g/ha, scale 0 to 10
[21] = Postemergence, Rate 500 g/ha, scale of 0 to 10 where 0 is no effect and 10 is complete control
[22] = Preemergence, Rate 62 g/ha, scale 0 to 10 (0 no effect, 10 complete control)
[23] = Preemergence, Rate 125 g/ha, scale of 0 to 10 where 0 is no effect and 10 is complete control
[24] = Preemergence, Rate 250 g/ha, scale 0 to 10, 0 is no effect, 10 is complete control
[25] = Preemergence, Rate 500 g/ha, scale 0 to 10, 0 is no effect, 10 is complete control
[26] = Rate 62 g/ha, Postemergence, scale of 0 to 10 where 0 is no effect and 10 is complete control
[27] = Rate 125 g/ha, Postemergence, scale 0 to 10, 0 is no effect, 10 is complete control
[28] = Postemergence block (flood test species), Rate 250 g/ha, scale 0 to 10
[29] = Postemergence section (flood test species), Rate 500 g/ha, scale of 0 to 10 where 0 is no effect and 10 is complete control
[30] = Rate 125 g/ha, Postemergence section (flood test species), scale 0 to 10, 0 is no effect, 10 is complete control
[31] = Rate 62 g/ha, Postemergence (flood test species), scale of 0 to 10 where 0 is no effect and 10 is complete control

CC(C)N(C(=O)n1oc(=O)n(C(C)C#N)c1=O)c1ccc(F)cc1F (centres unmarked) [Compound 432]
Blackgrass plant response rating [1, 20]: 4 | Blackgrass plant response rating [1, 21]: 4 | Plant response rating, Blackgrass [1, 22]: 0 | Plant response rating, Blackgrass [1, 23]: 0 | Blackgrass plant response rating [1, 24]: 0 | Blackgrass plant response rating [1, 25]: 2 | Blackgrass plant response rating [1, 26]: 0 | Blackgrass plant response rating [1, 27]: 2 | B. signalgrass plant response rating ([2]; Postemergence, Rate 250 g/ha, scale 0 to 10, 0 no effect, 10 complete control): 0 | B. signalgrass plant response rating [2, 21]: 0 | Plant response rating, B. signalgrass [2, 22]: 0 | Plant response rating, B. signalgrass [2, 23]: 0 | B. signalgrass plant response rating [2, 24]: 0 | B. signalgrass plant response rating [2, 25]: 0 | B. signalgrass plant response rating [2, 26]: 0 | B. signalgrass plant response rating [2, 27]: 0 | Cocklebur plant response rating [3, 20]: 0 | Cocklebur plant response rating [3, 21]: 0 | Plant response rating, Cocklebur [3, 22]: 0 | Plant response rating, Cocklebur [3, 23]: 0 | Cocklebur plant response rating [3, 24]: 0 | Cocklebur plant response rating [3, 25]: 0 | Cocklebur plant response rating [3, 26]: 0 | Cocklebur plant response rating [3, 27]: 0 | Corn plant response rating [4, 20]: 0 | Corn plant response rating [4, 21]: 0 | Plant response rating, Corn [4, 22]: 0 | Plant response rating, Corn [4, 23]: 0 | Corn plant response rating [4, 24]: 0 | Corn plant response rating [4, 25]: 0 | Corn plant response rating [4, 26]: 0 | Corn plant response rating [4, 27]: 0 | Crabgrass plant response rating [5, 20]: 6 | Crabgrass plant response rating [5, 21]: 6 | Plant response rating, Crabgrass [5, 22]: 3 | Plant response rating, Crabgrass [5, 23]: 5 | Crabgrass plant response rating [5, 24]: 8 | Crabgrass plant response rating [5, 25]: 9 | Crabgrass plant response rating [5, 26]: 0 | Crabgrass plant response rating [5, 27]: 0 | Giant foxtail plant response rating [6, 20]: 6 | Giant foxtail plant response rating [6, 21]: 8 | Plant response rating, Giant foxtail [6, 22]: 0 | Plant response rating, Giant foxtail [6, 23]: 2 | Giant foxtail plant response rating [6, 24]: 6 | Giant foxtail plant response rating [6, 25]: 9 | Giant foxtail plant response rating [6, 26]: 0 | Giant foxtail plant response rating [6, 27]: 3 | Morningglory plant response rating [7, 20]: 1 | Morningglory plant response rating [7, 21]: 2 | Plant response rating, Morningglory [7, 22]: 0 | Plant response rating, Morningglory [7, 23]: 0 | Morningglory plant response rating [7, 24]: 0 | Morningglory plant response rating [7, 25]: 0 | Morningglory plant response rating [7, 27]: 1 | Redroot pigweed plant response rating [8, 20]: 0 | Redroot pigweed plant response rating [8, 21]: 0 | Plant response rating, Redroot pigweed [8, 22]: 0 | Plant response rating, Redroot pigweed [8, 23]: 0 | Redroot pigweed plant response rating [8, 24]: 0 | Redroot pigweed plant response rating [8, 25]: 0 | Redroot pigweed plant response rating [8, 27]: 0 | Rape plant response rating [9, 20]: 0 | Rape plant response rating [9, 21]: 0 | Plant response rating, Rape [9, 22]: 0 | Plant response rating, Rape [9, 23]: 0 | Rape plant response rating [9, 24]: 0 | Rape plant response rating [9, 25]: 0 | Rape plant response rating [9, 27]: 0 | Soybean plant response rating [10, 20]: 2 | Soybean plant response rating [10, 21]: 2 | Plant response rating, Soybean [10, 22]: 0 | Plant response rating, Soybean [10, 23]: 0 | Soybean plant response rating [10, 24]: 0 | Soybean plant response rating [10, 25]: 0 | Soybean plant response rating [10, 27]: 1 | Sugarbeets plant response rating [11, 20]: 0 | Sugarbeets plant response rating [11, 21]: 0 | Plant response rating, Sugarbeets [11, 22]: 0 | Plant response rating, Sugarbeets [11, 23]: 0 | Sugarbeets plant response rating [11, 24]: 0 | Sugarbeets plant response rating [11, 25]: 0 | Sugarbeets plant response rating [11, 27]: 0 | Velvetleaf plant response rating [12, 20]: 0 | Velvetleaf plant response rating [12, 21]: 2 | Plant response rating, Velvetleaf [12, 22]: 0 | Plant response rating, Velvetleaf [12, 23]: 0 | Velvetleaf plant response rating [12, 24]: 0 | Velvetleaf plant response rating [12, 25]: 0 | Velvetleaf plant response rating [12, 27]: 0 | Wheat plant response rating [13, 20]: 0 | Wheat plant response rating [13, 21]: 0 | Plant response rating, Wheat [13, 22]: 0 | Plant response rating, Wheat [13, 23]: 0 | Wheat plant response rating [13, 24]: 0 | Wheat plant response rating [13, 25]: 0 | Wheat plant response rating [13, 27]: 0 | Wild oats plant response rating [14, 20]: 0 | Wild oats plant response rating [14, 21]: 3 | Plant response rating, Wild oats [14, 22]: 0 | Plant response rating, Wild oats [14, 23]: 0 | Wild oats plant response rating [14, 24]: 0 | Wild oats plant response rating [14, 25]: 0 | Wild oats plant response rating [14, 27]: 0 | Nutsedge plant response rating [15, 20]: 0 | Nutsedge plant response rating [15, 21]: 0 | Plant response rating, Nutsedge [15, 22]: 0 | Plant response rating, Nutsedge [15, 23]: 0 | Nutsedge plant response rating [15, 24]: 0 | Nutsedge plant response rating [15, 25]: 0 | Nutsedge plant response rating [15, 27]: 0 | Rice plant response rating [16, 28]: 0 | Rice plant response rating [16, 29]: 0 | Rice plant response rating [16, 30]: 0 | S. Flatsedge plant response rating [17, 28]: 0 | S. Flatsedge plant response rating [17, 29]: 0 | S. Flatsedge plant response rating [17, 30]: 0 | Ducksalad plant response rating [18, 28]: 0 | Ducksalad plant response rating [18, 29]: 0 | Ducksalad plant response rating [18, 31]: 0 | Ducksalad plant response rating [18, 30]: 0 | Barnyardgrass plant response rating [19, 28]: 0 | Barnyardgrass plant response rating [19, 29]: 0 | Barnyardgrass plant response rating [19, 31]: 0 | Barnyardgrass plant response rating [19, 30]: 0
